Where two headings read alike, the source gives them in different places.

One may read the IC50 as the concentration that inhibits the measured activity by half. For orientation: Cmax means the highest concentration seen after dosing. The AUC is concentration integrated over time. By Tmax is commonly meant the time from dosing to the highest level. A word on the half-life: it is the time in which the quantity being followed falls by half. Lower therefore signals fast loss.

Data set [1] relates to uterus of ovariectomized BALB/c mice. Description: Uterine wet weight (uterotrophic assay) in ovariectomized BALB/c mice. It is filed as in vivo, mouse. To be noted: 100 mg/kg oral gavage daily for 3 days. From the text:
(§1) Shown is a representative figure analyzed and presented as above.
To confirm that OP-1074 lacks agonist activity in the uterus, we tested it in ovariectomized BALB/c mice in a uterotrophic assay. […] Thus, OP-1074 is a pure antiestrogen in the mouse uterus.
Animals were euthanized and uteri dissected and weighed.

Data set [2] concerns the target T1, androgen receptor (AR) (Homo sapiens, UniProt P10275).
T1 construct: HeLa cells were transfected as above but also with plasmids for full length wild; expressed in transfected cells; host or cells: HeLa
T1 sequence (P10275 1-920): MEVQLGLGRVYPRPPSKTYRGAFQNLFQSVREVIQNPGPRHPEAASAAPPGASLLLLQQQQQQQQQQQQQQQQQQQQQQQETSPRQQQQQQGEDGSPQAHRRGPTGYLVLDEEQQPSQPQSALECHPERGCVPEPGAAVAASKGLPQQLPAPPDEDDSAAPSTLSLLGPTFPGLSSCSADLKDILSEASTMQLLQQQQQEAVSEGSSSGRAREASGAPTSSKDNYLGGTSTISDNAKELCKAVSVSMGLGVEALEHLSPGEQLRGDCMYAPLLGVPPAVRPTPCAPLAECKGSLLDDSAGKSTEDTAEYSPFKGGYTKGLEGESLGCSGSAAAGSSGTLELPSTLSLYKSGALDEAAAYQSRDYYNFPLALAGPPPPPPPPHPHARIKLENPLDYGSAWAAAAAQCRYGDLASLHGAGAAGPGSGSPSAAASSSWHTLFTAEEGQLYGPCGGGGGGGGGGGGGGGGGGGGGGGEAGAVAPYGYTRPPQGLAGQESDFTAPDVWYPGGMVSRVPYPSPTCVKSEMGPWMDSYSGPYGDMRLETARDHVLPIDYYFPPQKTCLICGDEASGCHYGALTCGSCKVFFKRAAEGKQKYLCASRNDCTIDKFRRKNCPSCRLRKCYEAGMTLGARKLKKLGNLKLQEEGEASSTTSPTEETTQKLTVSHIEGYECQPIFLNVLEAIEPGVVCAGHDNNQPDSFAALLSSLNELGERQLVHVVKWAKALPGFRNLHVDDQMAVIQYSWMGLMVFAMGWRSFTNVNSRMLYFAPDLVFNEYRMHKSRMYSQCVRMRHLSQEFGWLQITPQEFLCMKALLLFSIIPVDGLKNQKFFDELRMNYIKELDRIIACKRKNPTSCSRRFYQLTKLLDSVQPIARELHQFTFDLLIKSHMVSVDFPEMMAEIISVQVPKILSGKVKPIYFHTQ
Description: PRE3X-TATA-Luc reporter in HeLa cells transfected with AR. In kind it is cell-based. To be noted: alone or + 32 nM R1881, 22 h. As to the method:
representative experiment. […]
receptor (AR, (B)), glucocorticoid receptor (GR, (C)), and the B-isoform of the progesterone receptor (PR-B, (D)). HeLa cells were transfected with the designated wild type receptor along with reporter gene PRE3X-TATA-Luc, which is promiscuously activated with known agonists specific for each receptor: R1881 for AR, dexamethasone (Dex) for GR, and medroxyprogesterone acetate (MPA) for PR-B. Each receptor was also dosed with one concentration of known antagonist for each receptor: 32 nM bicalutamide for AR, and 500 nM RU486 for GR and PR. Transfected cells were treated with the designated ligands for 22 hours and luciferase activity assayed. Shown are representative experiments, independently performed at least 3 times. Note that curves for agonists for each receptor were performed in separate experiments. Shown are means with SEM, normalized to percent of 32 nM R1881 for AR, 32 nM Dex for GR, and 0.5 µM MPA for PR-B (except with MPA alone, which was normalized to […]
either ERα or ERβ, and 85 ng ERE-3x-Luc, containing 3 copies of estrogen-response element (ERE) cloned into pGL4.23 luciferase reporter gene containing a minimal TATA promoter […]
hours (1.25% total final charcoal dextran stripped FBS). Bright Glo luciferase reagent (Promega) […]

The test system of data set [3] is E2-stimulated AP activity in Ishikawa cells. In words: Alkaline phosphatase (AP) assay, antagonist mode (presence of 500 pM E2). It is filed as cell-based, human. Here is the method: Our primary screen to distinguish pure antiestrogens from SERMs was induction of alkaline phosphatase (AP) activity in Ishikawa uterine cells. […] The reference SERM used in our screen was endoxifen (N-desmethyl-4-hydroxytamoxifen), the most abundant bioactive metabolite of tamoxifen.
as §1
At least 4 h later cells were treated with antiestrogens and media was diluted to 2.5% stripped FBS. Cells were incubated for 3 days, media removed and plates frozen at −80 °C. Thawed plates were incubated with a chromogenic substrate of AP, p-nitrophenyl phosphate (ThermoFisher Scientific, #36721), for 40–60 min at 40 °C, and absorbance read at 405 nm on the Varioskan Lux multimodal plate reader (ThermoFisher Scientific, #VLBL00D0).

The nature of data set [4]: Pharmacokinetics in mouse plasma at conclusion of xenograft study. It is filed as in vivo.
Setting [5] is: female, athymic nude, mouse plasma, final dose, 100 mg/kg oral gavage twice daily.

Regarding `CC1=C(c2ccc(O)cc2)[C@H](c2ccc(OCCN3CC[C@@H](C)C3)cc2)Oc2cc(O)ccc21` [OP-1074], in data set [1] (absence of E2, OP-1074 as mixture of active and inactive diastereomers), the “Uterine wet weight, agonist mode” value is listed as “did not increase uterine wet weight”. The “Uterine wet weight, antagonist mode” value in data set [1] (co-treated with E2 subcutaneously) is on record as “not significantly different from fulvestrant”. The “Agonist and antagonist activity on AR” value in data set [2] was “lacks agonist and antagonist activity”. For the same compound, the half-maximal inhibitory concentration (IC50) in data set [3] (Homo sapiens, Ishikawa, 72 h, read-out: IC50 inhibition of E2-stimulated AP activity) turned out to be 20 nM. Also, the “Antagonism of E2-stimulated AP activity” value in data set [3] (Ishikawa cells, 500 pM E2) was “completely antagonized E2”. Also, the Cmax in data set [4] (female, athymic nude, oral, 100 mg/kg, mouse plasma, final dose, over a 24-h period, read-out: Cmax (Fig. 7c)) was 1280 ng/mL. Besides, in data set [4] (setting [5]), the AUC came out at 8200 ng·h/mL, the time to peak (Tmax) is 1.5 h and the half-life is 3.01 h. The Cmax in data set [4] (female, athymic nude, mouse plasma, final dose, 100 mg/kg oral gavage twice daily, read-out: Cmax) stood at 1300 ng/mL. In data set [4] (mouse, 100 mg/kg oral gavage twice daily), the “Oral bioavailability” value was “good oral bioavailability”.

For the origin of these results see article PMC6006285, “Specific stereochemistry of OP-1074 disrupts estrogen receptor alpha helix 12 and confers pure antiestrogenic activity” (Nature Communications, 2018).
